In ChEMBL document CHEMBL1201862, “PubChem BioAssay data set” (2004):
Active and inactive are the calls of the source.

What was measured:
[1] = molecular target: Fructose-bisphosphate aldolase (Mycobacterium tuberculosis, UniProt P9WQA3); experiment: Fluorescence-based biochemical high throughput dose response assay for inhibitors of the fructose-bisphosphate aldolase (FBA) of M. tuberculosis.; format: functional
[2] = blockers of HIV-1 ZM109 envelope-driven cell-cell fusion – HeLa effector, CEM target cells, luciferase, cherry-pick, dose response (AID 652058); format: functional, cell-based;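 further: luciferase signal from HIV-1 Env mediated cell-cell fusion of effector and target cells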
[3] = toxicity toward HepG2 liver cells – cell-based, plate reader, cherry-pick, antagonist series, cytotoxicity control, dose response (AID 743416); format: functional
[4] = reduction of Shn3 3'UTR-driven luciferase in osteoblasts – cell-based, Clone20 osteoblasts, firefly luciferase, cherry-picked, dose response (AID 624132); format: functional;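 further: firefly luciferase luminescence from reporter carrying the Shn3 3'UTR in osteoblasts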
[5] = blockers of bursicon-stimulated LGR2 cAMP reporter – cell-based, HEK293, CRE-luciferase reporter, cherry pick, set 2, dose response (AID 743343); format: functional;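 further: transfected cells were stimulated with diluted bursicon conditioned medium after compound addition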
[6] = viability loss in CEM21 cells – cell-based, CellTiter-Glo luminescence, cherry-picked, cytotoxicity control for viral fusion inhibitor project, dose response (AID 652042); format: functional;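 further: potency for signal decrease meaning cytotoxicity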
[7] = blockade of melanocortin 4 receptor signaling – cell-based, plate reader, cherry pick, counter-screen for LGR2 antagonist project, dose response (AID 743444); format: functional;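 further: transfected HEK 293 cells stimulated with alpha-MSH peptide; potency of inhibitors of the alpha-MSH evoked signal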
[8] = A549 cell cytotoxicity, dose response, cytotoxicity control, plate reader, cherry-pick, antagonist series (AID 743412); format: functional, cell-based
[9] = off-target signal loss in HeLa-CEM21 co-culture – HeLa F-luc CTL cells, cherry-picked, counter-screen for HIV-1 Env fusion inhibitor project, dose response (AID 652040); format: functional, cell-based;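 further: potency for signal decrease marking cytotoxic or nonspecific inhibition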
[10] = HIV-1 AD8 envelope cell-cell fusion blockers – cherry-pick, dose response (AID 652062); format: functional, cell-based;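 further: luciferase signal from cell-cell fusion driven by HIV-1 clade B AD8 Env; potency is for inhibitors of fusion seen as a drop in luminescence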
Paired box protein Pax-8 = Paired box protein Pax-8 (Homo sapiens, UniProt Q06710); experiment: PAX8 transcriptional activity inhibition in RMG-I – RMG-I cells, luciferase, cherry-pick, dose response (AID 687027); format: functional, cell-based;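 further: luciferase reporter driven by Pax8 target thyroperoxidase promoter measured by SteadyGlo luminescence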
Chain of Paired box protein Pax-8 (Q06710 whole entry): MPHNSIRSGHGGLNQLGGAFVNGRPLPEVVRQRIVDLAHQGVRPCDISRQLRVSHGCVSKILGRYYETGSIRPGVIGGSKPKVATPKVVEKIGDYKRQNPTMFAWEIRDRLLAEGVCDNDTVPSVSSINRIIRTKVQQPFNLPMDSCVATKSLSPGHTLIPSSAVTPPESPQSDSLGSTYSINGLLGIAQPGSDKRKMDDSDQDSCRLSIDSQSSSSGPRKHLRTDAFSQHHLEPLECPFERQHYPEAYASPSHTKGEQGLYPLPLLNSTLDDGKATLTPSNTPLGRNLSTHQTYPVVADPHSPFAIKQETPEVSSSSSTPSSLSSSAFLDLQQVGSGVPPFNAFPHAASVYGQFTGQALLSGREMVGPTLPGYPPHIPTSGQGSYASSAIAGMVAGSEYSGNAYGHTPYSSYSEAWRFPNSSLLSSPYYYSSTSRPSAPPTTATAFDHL

[11] = loss of viability in HepG2 cells – cell-based, CellTiter-Glo, cherry-picked, cytotoxicity control for Shn3 inhibitor project, dose response (AID 624134); format: functional
[12] = blockers of HIV-1 envelope-mediated cell-cell fusion – cherry-pick, dose response (AID 652057); format: functional, cell-based
[13] = viability loss in HepG2 hepatoma cells – cell-based, ATP luminescence, cherry-pick, activator set 2, cytotoxicity control, dose response (AID 1053143); format: functional
[14] = Luminescence Cell-Based Dose Response HTS to Identify Activators of Luciferase Translation or Activity in H4 […] Cells. [Related pubchem assays: 1829 (Project Summary), 1814 (Primary HTS)]; format: functional
[15] = molecular target: SWI/SNF-related matrix-associated actin-dependent regulator of chromatin subfamily A member 2 (Homo sapiens, UniProt P51531); experiment: Luminescence-based cell-based high throughput dose response assay to identify activators of the function of SWI/SNF related, matrix associated, actin dependent regulator of chromatin, subfamily a, member 2 (SMARCA2, BRM).; format: functional
Chain of SWI/SNF-related matrix-associated actin-dependent regulator of chromatin subfamily A member 2 (P51531 whole entry): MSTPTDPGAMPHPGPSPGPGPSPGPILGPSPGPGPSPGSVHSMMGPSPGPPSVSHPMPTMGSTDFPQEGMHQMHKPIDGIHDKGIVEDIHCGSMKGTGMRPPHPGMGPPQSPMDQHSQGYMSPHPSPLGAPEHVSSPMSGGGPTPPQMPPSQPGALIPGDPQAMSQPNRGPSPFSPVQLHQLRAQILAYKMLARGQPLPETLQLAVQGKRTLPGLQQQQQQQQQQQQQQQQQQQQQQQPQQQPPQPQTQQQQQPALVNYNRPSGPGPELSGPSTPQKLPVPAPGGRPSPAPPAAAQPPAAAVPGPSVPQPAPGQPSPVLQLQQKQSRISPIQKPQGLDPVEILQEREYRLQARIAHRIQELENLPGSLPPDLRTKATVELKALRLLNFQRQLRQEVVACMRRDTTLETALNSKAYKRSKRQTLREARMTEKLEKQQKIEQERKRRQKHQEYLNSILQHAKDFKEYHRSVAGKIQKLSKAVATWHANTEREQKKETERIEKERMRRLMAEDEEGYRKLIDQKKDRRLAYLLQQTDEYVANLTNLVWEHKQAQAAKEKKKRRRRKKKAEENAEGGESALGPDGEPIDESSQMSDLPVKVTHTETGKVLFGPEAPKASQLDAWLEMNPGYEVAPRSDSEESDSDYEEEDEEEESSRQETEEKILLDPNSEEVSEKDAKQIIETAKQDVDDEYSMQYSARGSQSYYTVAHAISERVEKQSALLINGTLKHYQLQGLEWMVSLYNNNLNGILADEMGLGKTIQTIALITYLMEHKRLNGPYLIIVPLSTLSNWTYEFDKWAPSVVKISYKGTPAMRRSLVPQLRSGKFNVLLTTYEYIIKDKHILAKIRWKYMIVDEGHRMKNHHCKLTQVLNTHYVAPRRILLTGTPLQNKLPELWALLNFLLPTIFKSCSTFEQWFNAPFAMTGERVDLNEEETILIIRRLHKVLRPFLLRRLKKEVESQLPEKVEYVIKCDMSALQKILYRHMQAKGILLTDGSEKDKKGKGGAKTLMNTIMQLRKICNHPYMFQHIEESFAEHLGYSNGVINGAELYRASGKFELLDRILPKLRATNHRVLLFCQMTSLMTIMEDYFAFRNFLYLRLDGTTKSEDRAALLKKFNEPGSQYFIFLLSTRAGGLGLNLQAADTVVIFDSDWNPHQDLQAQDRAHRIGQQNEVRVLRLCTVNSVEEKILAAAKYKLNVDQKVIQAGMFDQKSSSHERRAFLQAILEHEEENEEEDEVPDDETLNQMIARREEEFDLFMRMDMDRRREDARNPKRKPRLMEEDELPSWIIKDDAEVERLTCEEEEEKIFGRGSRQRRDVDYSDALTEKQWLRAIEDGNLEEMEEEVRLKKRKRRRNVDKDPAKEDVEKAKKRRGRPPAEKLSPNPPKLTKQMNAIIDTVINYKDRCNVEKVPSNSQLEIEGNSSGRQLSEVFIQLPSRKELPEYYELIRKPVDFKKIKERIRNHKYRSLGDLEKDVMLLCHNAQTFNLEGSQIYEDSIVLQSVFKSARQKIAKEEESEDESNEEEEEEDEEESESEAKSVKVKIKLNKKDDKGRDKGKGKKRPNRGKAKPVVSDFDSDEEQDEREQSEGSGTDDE

H4 = experiment: Luminescence Cell-Based Dose Response HTS to Identify Activators of 5'UTR Stem-Loop Driven Prion Protein mRNA Translation in H4 Neuroglioblastoma Cells. [Related pubchem assays: 1829 (Project Summary), 1814 (Primary HTS)]; format: functional; conditions: Homo sapiens
[16] = Luminescence Cell-Based Dose Confirmation HTS to Identify Activators of 5'UTR Stem-Loop Driven Alpha-Synuclein mRNA Translation in H4 Neuroglioblastoma Cells. [Related pubchem assays: 1829 (Project Summary), 1814 (Primary HTS)]; format: functional
[17] = Counterscreen for activators of the function of SWI/SNF related, matrix associated, actin dependent regulator of chromatin, subfamily a, member 2 (SMARCA2, BRM): Luminescence-based cell-based high throughput dose response assay to identify non-selective compounds using the VP16 reporter assay.; format: functional
SUMO-activating enzyme [18] = molecular target: T1, SUMO-activating enzyme (Homo sapiens, UniProt Q9UBT2); experiment: blockers of UBC9-mediated SUMO conjugation – biochemical, AlphaScreen, SUMOylation inhibitor project, confirmation (AID 2018); format: functional
T1 sequence (Q9UBE0 whole entry): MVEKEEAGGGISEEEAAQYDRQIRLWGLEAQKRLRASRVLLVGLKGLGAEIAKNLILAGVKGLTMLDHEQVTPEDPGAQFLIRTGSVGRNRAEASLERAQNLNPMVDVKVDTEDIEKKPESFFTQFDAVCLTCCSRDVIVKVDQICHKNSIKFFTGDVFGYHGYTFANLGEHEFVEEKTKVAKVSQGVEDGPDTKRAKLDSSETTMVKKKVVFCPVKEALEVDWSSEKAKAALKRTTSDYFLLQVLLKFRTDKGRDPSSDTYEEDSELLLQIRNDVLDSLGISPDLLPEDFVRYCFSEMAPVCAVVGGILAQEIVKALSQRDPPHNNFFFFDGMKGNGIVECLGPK
T1 sequence (Q9UBT2 whole entry): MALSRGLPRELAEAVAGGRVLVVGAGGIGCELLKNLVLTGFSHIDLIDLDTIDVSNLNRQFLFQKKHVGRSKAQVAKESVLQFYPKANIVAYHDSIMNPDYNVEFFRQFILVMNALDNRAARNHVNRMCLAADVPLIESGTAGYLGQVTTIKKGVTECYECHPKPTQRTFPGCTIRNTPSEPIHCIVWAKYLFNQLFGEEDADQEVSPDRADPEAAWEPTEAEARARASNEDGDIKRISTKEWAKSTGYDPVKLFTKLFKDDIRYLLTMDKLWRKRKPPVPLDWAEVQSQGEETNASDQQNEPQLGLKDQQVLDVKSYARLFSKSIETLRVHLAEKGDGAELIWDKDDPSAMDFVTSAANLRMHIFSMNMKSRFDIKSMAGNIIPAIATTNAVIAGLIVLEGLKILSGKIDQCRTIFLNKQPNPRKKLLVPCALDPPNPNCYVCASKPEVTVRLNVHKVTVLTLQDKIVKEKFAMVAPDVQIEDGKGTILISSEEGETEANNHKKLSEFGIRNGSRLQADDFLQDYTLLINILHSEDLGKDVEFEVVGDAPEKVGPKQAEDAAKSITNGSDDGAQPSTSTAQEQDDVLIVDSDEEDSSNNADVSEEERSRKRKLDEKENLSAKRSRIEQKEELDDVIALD

Albumin = Albumin (Bos taurus, UniProt P02769); experiment: Counterscreen for inhibitors of T-cell receptor (TCR)-CD3 interaction: Fluorescence-based biochemical high throughput dose response assay to identify inhibitors of T-cell receptor (TCR)-CD3 interaction using a TAMRA-labeled BSA probe.; format: functional
Chain of Albumin (P02769 whole entry): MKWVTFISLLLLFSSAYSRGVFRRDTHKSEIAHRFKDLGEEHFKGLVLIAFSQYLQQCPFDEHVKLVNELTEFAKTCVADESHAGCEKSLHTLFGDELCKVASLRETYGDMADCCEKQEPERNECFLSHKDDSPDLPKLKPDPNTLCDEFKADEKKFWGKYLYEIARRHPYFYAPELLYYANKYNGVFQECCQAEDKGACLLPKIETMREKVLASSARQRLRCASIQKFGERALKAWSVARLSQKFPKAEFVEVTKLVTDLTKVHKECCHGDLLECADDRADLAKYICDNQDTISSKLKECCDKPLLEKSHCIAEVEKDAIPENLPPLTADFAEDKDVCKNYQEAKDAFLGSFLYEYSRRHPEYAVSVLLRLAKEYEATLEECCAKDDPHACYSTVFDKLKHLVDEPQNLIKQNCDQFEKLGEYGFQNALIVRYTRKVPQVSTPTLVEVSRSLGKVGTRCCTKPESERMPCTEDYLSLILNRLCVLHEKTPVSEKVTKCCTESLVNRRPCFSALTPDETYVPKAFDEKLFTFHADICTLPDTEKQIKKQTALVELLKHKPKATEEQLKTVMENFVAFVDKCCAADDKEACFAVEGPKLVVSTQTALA

SUMO-activating enzyme [19] = molecular target: T1, SUMO-activating enzyme; experiment: blockers of SAE1/SAE2–UBC9 SUMO transfer – biochemical, HTRF, uHTS, primary screen (AID 2006); format: protein-complex assay
[20] = general mammalian cell viability loss – inhibitor set, cherry-pick, set 2, cytotoxicity control for miR-122 modulator project, dose response (AID 720697); format: functional, cell-based
HeLa = experiment: viability loss in HeLa cells – cell-based, ATP luminescence, cherry-pick samples, cytotoxicity control, dose response (AID 687004); format: functional; conditions: Homo sapiens
[21] = Trypanosoma cruzi growth suppression in host cells – NIH3T3 host cells, beta-gal luminescence, confirmation (AID 2044); format: functional, cell-based;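 further: intracellular parasites grown in NIH/3T3 mouse fibroblasts as host cells; luminescent beta-galactosidase reporter signal from transgenic T. cruzi replicating inside host cells; inhibitors lower the luminescence signal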
[22] = NIH3T3 cell viability loss – ATP luminescence, mouse fibroblasts, counter-screen, dose response (AID 2010); format: functional, cell-based; conditions: NIH3T3;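 further: cells exposed to compound for about 90 hours before reading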
[23] = activation of miR-122 Renilla sensor silencing – cell-based, Huh7 psiCHECK-miR122, Renilla luciferase, cherry-picked, dose response (AID 651956); format: functional;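 further: huh7 hepatoma cells stably carrying a psiCHECK-2 miR-122 sensor plasmid; renilla luciferase signal reporting endogenous miR-122 activity after 48 h compound exposure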
[24] = general mammalian cell viability loss – activator set, cherry-pick, cytotoxicity control for miR-122 modulator project, dose response (AID 720690); format: functional, cell-based;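 further: HEK293T human cells scored for general mammalian cytotoxicity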

Chain of Fructose-bisphosphate aldolase (P9WQA3 whole entry, the tested form may be a part): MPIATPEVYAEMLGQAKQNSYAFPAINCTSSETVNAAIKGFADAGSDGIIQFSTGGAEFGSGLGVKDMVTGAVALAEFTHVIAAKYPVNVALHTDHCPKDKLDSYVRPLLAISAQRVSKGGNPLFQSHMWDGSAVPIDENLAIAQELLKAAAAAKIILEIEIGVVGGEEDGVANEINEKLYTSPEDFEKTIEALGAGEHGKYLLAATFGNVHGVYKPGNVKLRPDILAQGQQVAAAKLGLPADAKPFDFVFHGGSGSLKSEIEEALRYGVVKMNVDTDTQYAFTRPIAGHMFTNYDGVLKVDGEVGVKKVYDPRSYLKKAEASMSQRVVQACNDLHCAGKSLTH

For `Cc1ccc(-c2nc3ncccc3o2)cc1NC(=O)C(C)C`, the IC50 [1] was 1.5 µM (active).

With `O=C(Nc1cccc(-c2ccc(N3CCCCC3)nn2)c1)C(F)(F)F` the AC50 [2] was 34.1 µM (active), the AC50 [3] was 43.6 µM (active) and the AC50 [4] was 9.07 µM (active). The AC50 [5] was 2.61 µM (active), the AC50 [6] was 34.1 µM (active) and the AC50 [7] was 1.41 µM (active). The AC50 [8] was 30.2 µM (active), the AC50 [9] was 9.6 µM (active) and the AC50 [10] was 6.31 µM (active). The AC50 (Paired box protein Pax-8) was 3.04 µM (active), the AC50 [11] was 33.1 µM (active) and the AC50 [12] was 3.47 µM (active).

In the case of `O=C(NCCOc1ccccc1F)C1CC(=O)N(Cc2ccccc2)C1` (centres undefined), the AC50 [13] is reported as > 52 µM (inactive).

With `CC(C)c1ccc(/C=N/NC(=O)c2c(Cl)cnn2C)cc1` the EC50 [14] was 0.251 µM (active), the EC50 [15] was > 91.2 µM (inactive) and the EC50 (H4) was 27.5 µM (active). For the same compound, the EC50 [16] was 9.9 µM (active) and the EC50 [17] was > 91.2 µM (inactive).

For `Cc1c(NC(=S)N/N=C/c2cc([N+](=O)[O-])ccc2O)c(=O)n(-c2ccccc2)n1C`, the IC50 (SUMO-activating enzyme [18]) was 1.64 µM (active), the IC50 (Albumin) was > 94.1 µM (inactive) and the IC50 (SUMO-activating enzyme [19]) was 11.4 µM (active).

With `CC(=O)Nc1ccc2c(c1)C(=O)N(C)[C@@H]1CC[C@H](CC(=O)NC3CCCCC3)O[C@H]1CO2` the AC50 [20] was 0.457 µM (active).

In the case of `CCOc1ccc(C(=O)NC(=S)Nc2ccccc2N2CCC(C)CC2)cc1[N+](=O)[O-]`, the AC50 (HeLa) is reported as > 52 µM (inactive), the EC50 [21] is reported as 1.32 µM (active) and the EC50 [22] is reported as > 60 µM (not active).

With `C[C@@H]1CN([C@@H](C)CO)C(=O)c2cc(NC(=O)Nc3cccc4ccccc34)ccc2O[C@@H](C)CCCCO[C@@H]1CN(C)CC1CCCCC1` the AC50 [23] was 11.6 µM (active), the AC50 [24] was 30.5 µM (active) and the AC50 [20] was 6.05 µM (active).
